# Measurements from patent publication US20170296668A1, “METHODS OF INCREASING SOLUBILITY OF POORLY SOLUBLE COMPOUNDS AND METHODS OF MAKING AND USING FORMULATIONS OF SUCH COMPOUND” (VIZURI HEALTH SCIENCES LLC, priority 2009, published 2017).
# Where two headings read alike, the source gives them in different places.
# Key:
# [1] = Solubility of concentrates in oil solvents; type: physicochemical
# Excerpt: Borage oil was obtained from Sigma-Aldrich (St. Louis, Mo.) and Mineral Oil, USP, Canola Oil and Jojoba Oil from Spectrum Chemical of New Brunswick, N.J.
# [2] = Boiling of flavonoid in H2O & PS80 slurry; type: physicochemical; conditions: 2. H2O & PS80 slurry boiled; for solubility: water and polysorbate 80 slurry, aqueous with cosolvent or surfactant or cyclodextrin, thermodynamic from solid, read-out: SOLUBLE CONC. RANGE
# [3] = Solubility in Ceteareth-20 via thermal treatment process; conditions: thermal treatment >200° C.
# [4] = Nonoxynol-9 concentrates via thermal treatment process; type: physicochemical; conditions: Table XVI
# Description: (§1) The concentrates were added to water and their aqueous solution characteristics noted.
# [5] = Solubility in PEG 400 / PEG 300 via thermal treatment process; conditions: for Flavonoid in Solvent -: PEG-400, HPLC, thermal treatment concentrate; for Jordi PEG400 Results / PEG400 Sol. Conc.: Table III
# Description: • The objective of this work was to quantify a total of six different flavonoids in PS80 and PEG-400. The samples were also analyzed qualitatively to look for signs of degradation of the solvents due to the elevated temperatures required of the thermal treatment process. • This project was divided into three distinct phases: method validation/development, quantitation of the individual flavones, and qualitative analysis to look for signs of PS80/PEG400 degradation.
# [6] = Aqueous solution clarity: water added to concentrate vs non-concentrate method
# Description: as §1
# [7] = Solubility in Polysorbate 80 via thermal treatment process; conditions: for Prepared Thermal Treatment Concentration in Polysorbate 80: Table XV; for solubility: polysorbate 80, organic solvent or mixture, thermodynamic from solid; for PS80 Sol. Conc. - / Jordi PS800 Results: Table III; for Flavonoid in Solvent -: PS80, HPLC, thermal treatment concentrate
# Description: The concentration of apigenin in A/PS80 was measured by HPLC-MS.
# [8] = cited from earlier work; for Lit. H2O Sol. -: Table III; for WATER SOLUBILITY (mg/ml): saturation concentrations, published sources
# [9] = test system: EpiDerm tissue; type: cell-based; conditions: time to reduce tissue viability to 50%; unaudited values
# [10] = Supersaturation test by addition of a crystal
# [11] = PS80, 1. Thermal Treatment method
molecule,measurement,setting,value
"O=c1cc(-c2ccc(O)c(O)c2)oc2cc(O)cc(O)c12 [Luteolin, 3′,4′,5,7-tetrahydroxyflavone]",solubility in the test oils,"[1]; mineral, jojoba, canola, borage oils",insoluble
same,concentration of concentrate in polyglyceryl-4 oleate,[1]; room temperature,10 mg/mL
same,SOLUBLE CONC. RANGE (% wt/wt),[2],≤ 5%
same,solubility,[2],≤ 50 mg/mL
same,Conc. In Ceteareth-20,[3],~10 mg/mL
same,Prepared Thermal Treatment Concentration in Nonoxynol-9,[4],50 mg/mL
same,Molar Ratio PEG400/API (mole/mole),[5],11.1 mole/mole
same,Flavonoid in Solvent -,[5],72.5 mg/mL
same,Jordi PEG400 Results,[5]; thermal treatment,72.5 mg/mL
same,PEG400 Sol. Conc.,[5]; thermal treatment,70 to 90 mg/mL
same,"non-concentrate method: compound, nonoxynol-9 and 17 ml water heated to near boiling, cooled",[6],did precipitate
same,Comments when 17 ml of H2O was added to 3 gms of the concentrate,[6]; Nonoxynol-9 concentrate,A clear soln formed.
same,"non-concentrate method: compound, polysorbate 80 and 17 ml water heated to near boiling, cooled",[6],did precipitate
same,Comments when 17 ml of H2O was added to 3 gms of the concentrate,[6]; Polysorbate 80 concentrate,A clear soln formed.
same,SOLUBLE CONC. RANGE (% wt/wt),[7]; [11],> 8%
same,Prepared Thermal Treatment Concentration in Polysorbate 80,[7],50 mg/mL
same,solubility,[7],> 80 mg/mL
same,PS80 Sol. Conc. -,[7]; thermal treatment,>80 mg/mL
same,Lit. H2O Sol. -,[8],0.38 mg/mL
same,Literature Solubility in H2O @ 25° C.,[8]; Table XV,0.14 mg/mL
same,Literature Solubility in H2O @ 25° C.,[8]; Table XVI,0.14 mg/mL
C[C@@H]1O[C@@H](OC[C@H]2O[C@@H](Oc3c(-c4ccc(O)c(O)c4)oc4cc(O)cc(O)c4c3=O)[C@H](O)[C@@H](O)[C@@H]2O)[C@H](O)[C@H](O)[C@H]1O [Rutin],solubility,[2],< 15 mg/mL
same,SOLUBLE CONC. RANGE (% wt/wt),[7]; [11],< 1%
same,Flavonoid in Solvent -,[7],14.3 mg/mL
same,solubility,[7],< 10 mg/mL
Triton X-100,ET50,[9],5.9 h
COc1ccc([C@@H]2CC(=O)c3c(O)cc(O[C@@H]4O[C@H](CO[C@@H]5O[C@@H](C)[C@H](O)[C@@H](O)[C@H]5O)[C@@H](O)[C@H](O)[C@H]4O)cc3O2)cc1O [Hesperidin],SOLUBLE CONC. RANGE,[2],< 10 mg/mL
same,SOLUBLE CONC. RANGE (% wt/wt),[2],< 1%
same,Molar Ratio PEG400/API (mole/mole),[5],21.2 mole/mole
same,Flavonoid in Solvent -,[5],81.0 ± 8.0 mg/mL
same,Jordi PEG400 Results,[5]; thermal treatment,81 mg/mL
same,SOLUBLE CONC. RANGE,[7]; [11],< 20 mg/mL
same,Lit. H2O Sol. -,[8],0.05 to 3 mg/mL
same,WATER SOLUBILITY (mg/ml),[8],from 0.05 to 3 mg/ml
O=c1c(O)c(-c2ccc(O)c(O)c2)oc2cc(O)cc(O)c12 [Quercetin],SOLUBLE CONC. RANGE (% wt/wt),[2],<<7%
same,Conc. In Ceteareth-20,[3],~10 mg/mL
same,PEG400 Sol. Conc.,[5]; thermal treatment,60 to 80 mg/mL
same,supersaturation in Ceteareth-20,[10]; Room Temp.,solubilization. Not Super Saturated at Room Temp. via
same,SOLUBLE CONC. RANGE (% wt/wt),[7]; [11],> 7%
same,Flavonoid in Solvent -,[7],65.0 mg/mL
same,solubility,[7],> 70 mg/mL
same,Jordi PS800 Results,[7]; thermal treatment,65 mg/mL
same,PS80 Sol. Conc. -,[7]; thermal treatment,>80 mg/mL
same,Lit. H2O Sol. -,[8],<1 mg/mL
same,WATER SOLUBILITY (mg/ml),[8],*<1 mg/ml
Oc1ccc(C=Cc2cc(O)cc(O)c2)cc1 [Resveratrol],PEG400 Sol. Conc.,[5]; thermal treatment,80 to 100 mg/mL
same,SOLUBLE CONC. RANGE (% wt/wt),[7]; [11],> 8%
same,Flavonoid in Solvent -,[7],127.5 mg/mL
same,solubility,[7],> 80 mg/mL
same,Jordi PS800 Results,[7]; thermal treatment,127.5 mg/mL
same,PS80 Sol. Conc. -,[7]; thermal treatment,>80 mg/mL
same,WATER SOLUBILITY (mg/ml),[8],*0.1 to 0.3 mg/ml
"Cc1cccc(Nc2ccccc2C(=O)O)c1C [Mefenamic Acid, reference compound]",Prepared Thermal Treatment Concentration in Nonoxynol-9,[4],10 mg/mL
same,"PEG400 Solubility: amount solubilized, remained solubilized @ Room Temp.",[5]; thermal treatment,1 wt %
same,PEG400 Solubility: supersaturation,[10]; PEG400 solution,Not Sup. Sat.
same,PS80 Solubility: supersaturation,[10]; PS80 solution,Not Sup. Sat.
same,"non-concentrate method: compound, nonoxynol-9 and 17 ml water heated to near boiling, cooled",[6],did precipitate
same,Comments when 17 ml of H2O was added to 3 gms of the concentrate,[6]; Nonoxynol-9 concentrate,A clear soln formed.
same,PEG400 Solubility: behaviour when H2O was added,[6]; PEG400 solution + H2O,Nost Mefenamic Acid ppt. out when H2O was added
same,PS80 Solubility: behaviour when H2O was added,[6]; PS80 solution + H2O,Nost Mefenamic Acid dissolved when H2O was added
same,"non-concentrate method: compound, polysorbate 80 and 17 ml water heated to near boiling, cooled",[6],did precipitate
same,Comments when 17 ml of H2O was added to 3 gms of the concentrate,[6]; Polysorbate 80 concentrate,A clear soln formed.
same,Prepared Thermal Treatment Concentration in Polysorbate 80,[7],10 mg/mL
same,"PS80 Solubility: amount solubilized, remained solubilized @ Room Temp.",[7]; thermal treatment,1 wt %
same,Literature Solubility in H2O @ 25° C.,[8]; Table XV,0.004 mg/mL
same,Literature Solubility in H2O @ 25° C.,[8]; Table XVI,0.004 mg/mL
